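Growth conditions: 96-well plates. Treatment: test compound, 48 hours, 5 concentrations. Analysis: linear interpolation between bracketing concentrations; unreached endpoints set to highest concentration. Here, GI50 denotes the concentration required for 50% inhibition of growth.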 Active and inactive are the calls of the source. No stated cut-off is given here; in the data, active = GI50 up to about 1.1 µM and inactive = higher.
Experiments:
Test in all cases: NCI tumour cell line growth inhibition, 48 h
[1] = tested on: HT-29
[2] = tested on: SK-MEL-5
[3] = tested on: OVCAR-5
[4] = tested on: HL-60
[5] = tested on: Malme-3M
[6] = tested on: HCC 2998
[7] = tested on: SW-620
[8] = tested on: DLD-1
[9] = tested on: SNB-19
[10] = tested on: A498
[11] = tested on: COLO 205
[12] = tested on: UO-31
[13] = tested on: OVCAR-8
[14] = tested on: KM12
[15] = tested on: RPMI-8226
[16] = tested on: SN12C
[17] = tested on: RXF 393
[18] = tested on: PC-3
[19] = tested on: NCI-H522
[20] = tested on: MDA-MB-231

Structure (SMILES)	GI50 [1]	GI50 [2]	GI50 [3]	GI50 [4]	GI50 [5]	GI50 [6]	GI50 [7]	GI50 [8]	GI50 [9]	GI50 [10]	GI50 [11]	GI50 [12]	GI50 [13]	GI50 [14]	GI50 [15]	GI50 [16]	GI50 [17]	GI50 [18]	GI50 [19]	GI50 [20]
CCOC(=O)CC1COc2ccc3c(c21)OCO3 (stereo unspecified)	> 100 µM (inactive)	> 100 µM (inactive)	> 100 µM (inactive)	> 100 µM (inactive)	> 100 µM (inactive)	> 100 µM (inactive)	> 100 µM (inactive)	> 100 µM (inactive)	> 100 µM (inactive)	> 100 µM (inactive)	> 100 µM (inactive)	> 100 µM (inactive)	> 100 µM (inactive)	> 100 µM (inactive)	> 100 µM (inactive)	> 100 µM (inactive)				
CN(C)Cc1cc(Cl)c(O)c(CN(C)C)c1	> 100 µM (inactive)	> 100 µM (inactive)	> 100 µM (inactive)	> 100 µM (inactive)	> 100 µM (inactive)	> 100 µM (inactive)	> 100 µM (inactive)		> 100 µM (inactive)	> 100 µM (inactive)	> 100 µM (inactive)	> 100 µM (inactive)	> 100 µM (inactive)	> 100 µM (inactive)	> 100 µM (inactive)	> 100 µM (inactive)	> 100 µM (inactive)	> 100 µM (inactive)	> 100 µM (inactive)	> 100 µM (inactive)
CCCCCCCCCCCCCCCCOP(=O)(O)OP(=O)(O)OCC1OC(n2ccc(N)nc2=O)CC1O (stereo unspecified)	> 100 µM (inactive)	> 100 µM (inactive)	> 100 µM (inactive)	> 100 µM (inactive)	> 100 µM (inactive)	> 100 µM (inactive)	> 100 µM (inactive)		> 100 µM (inactive)	> 100 µM (inactive)	> 100 µM (inactive)	> 100 µM (inactive)	> 100 µM (inactive)	> 100 µM (inactive)	> 100 µM (inactive)	> 100 µM (inactive)	> 100 µM (inactive)	> 100 µM (inactive)	> 100 µM (inactive)	> 100 µM (inactive)
CCCOP1(=O)C=C(O)C(Cl)=C(C)C1 (stereo unspecified)	> 100 µM (inactive)	> 100 µM (inactive)		> 100 µM (inactive)	> 100 µM (inactive)	> 100 µM (inactive)	> 100 µM (inactive)	> 100 µM (inactive)	> 100 µM (inactive)		> 100 µM (inactive)	> 100 µM (inactive)	> 100 µM (inactive)	41.2 µM (inactive)		> 100 µM (inactive)	> 100 µM (inactive)		> 100 µM (inactive)	
CCCCCCc1cc2cc(C(=O)Nc3nc(C45CC6CC(CC(C6)C4)C5)cs3)c(=O)oc2cc1O	13.3 µM (inactive)	11.9 µM (inactive)	16 µM (inactive)	5.18 µM (inactive)	19.7 µM (inactive)	8.15 µM (inactive)	19 µM (inactive)		12.3 µM (inactive)	13.6 µM (inactive)	16.7 µM (inactive)	24.5 µM (inactive)	7.11 µM (inactive)	11 µM (inactive)	11.2 µM (inactive)	5.53 µM (inactive)	8.24 µM (inactive)	9.27 µM (inactive)	3.45 µM (inactive)	7.33 µM (inactive)
C/C(CC/C(C)=N/O)=N\O	> 100 µM (inactive)	> 100 µM (inactive)	> 100 µM (inactive)	> 100 µM (inactive)	> 100 µM (inactive)	> 100 µM (inactive)	> 100 µM (inactive)		> 100 µM (inactive)	> 100 µM (inactive)	> 100 µM (inactive)	> 100 µM (inactive)	> 100 µM (inactive)	> 100 µM (inactive)	> 100 µM (inactive)	> 100 µM (inactive)	> 100 µM (inactive)	> 100 µM (inactive)	> 100 µM (inactive)	> 100 µM (inactive)
CC1CC(=O)Nc2cc(Cl)ccc2N1C(=O)C1CC1 (stereo unspecified)	> 100 µM (inactive)	> 100 µM (inactive)	> 100 µM (inactive)	> 100 µM (inactive)	> 100 µM (inactive)	> 100 µM (inactive)	> 100 µM (inactive)		> 100 µM (inactive)	> 100 µM (inactive)	> 100 µM (inactive)	> 100 µM (inactive)	> 100 µM (inactive)	> 100 µM (inactive)	> 100 µM (inactive)	> 100 µM (inactive)	> 100 µM (inactive)	> 100 µM (inactive)	> 100 µM (inactive)	> 100 µM (inactive)
O=c1[nH]nc(-c2ccc([N+](=O)[O-])cc2)n1/N=C/c1ccc([N+](=O)[O-])cc1	74 µM (inactive)	48.4 µM (inactive)	> 100 µM (inactive)	30.4 µM (inactive)	> 100 µM (inactive)	> 100 µM (inactive)	> 100 µM (inactive)		> 100 µM (inactive)	> 100 µM (inactive)	> 100 µM (inactive)	> 100 µM (inactive)	> 100 µM (inactive)	55.3 µM (inactive)	38.5 µM (inactive)	> 100 µM (inactive)	56.9 µM (inactive)	57.9 µM (inactive)	73.3 µM (inactive)	> 100 µM (inactive)
Cc1ccc(-c2cc(-c3ccc(Cl)cc3)nc(/N=C3\C(=O)N(CN4CCOCC4)c4ccc(Cl)cc43)n2)cc1	16.3 µM (inactive)	18.1 µM (inactive)	26.4 µM (inactive)	11.6 µM (inactive)	> 100 µM (inactive)	19.1 µM (inactive)	6.49 µM (inactive)		34.8 µM (inactive)	20.5 µM (inactive)	20.2 µM (inactive)	24.9 µM (inactive)	20.9 µM (inactive)	22.2 µM (inactive)	0.0139 µM (active)	24.7 µM (inactive)	13.8 µM (inactive)	30 µM (inactive)	15.4 µM (inactive)	30 µM (inactive)
CCC1NC(=O)C1NC(=O)OC (stereo unspecified)	> 100 µM (inactive)	> 100 µM (inactive)	> 100 µM (inactive)	> 100 µM (inactive)	> 100 µM (inactive)	> 100 µM (inactive)	> 100 µM (inactive)		> 100 µM (inactive)	> 100 µM (inactive)	> 100 µM (inactive)	> 100 µM (inactive)	> 100 µM (inactive)	> 100 µM (inactive)	> 100 µM (inactive)	> 100 µM (inactive)	> 100 µM (inactive)	> 100 µM (inactive)	> 100 µM (inactive)	> 100 µM (inactive)
CCCCC[C@H]1CC=CC(=O)O1	4.03 µM (inactive)	7.78 µM (inactive)	24 µM (inactive)	2.88 µM (inactive)	15.5 µM (inactive)	4.25 µM (inactive)	3.41 µM (inactive)		10.1 µM (inactive)	1.82 µM (inactive)	3.53 µM (inactive)	11 µM (inactive)	8.28 µM (inactive)	3.18 µM (inactive)	2.86 µM (inactive)	6.68 µM (inactive)	2.33 µM (inactive)	7.93 µM (inactive)	2.78 µM (inactive)	10 µM (inactive)
CC(C)=CCC[C@@H](C)C1=C(Nc2ccccc2F)C(=O)C(C)=C(O)C1=O	4.74 µM (inactive)	3.18 µM (inactive)	36.8 µM (inactive)	1 µM (active)	7.6 µM (inactive)	7.59 µM (inactive)	5.98 µM (inactive)		4.42 µM (inactive)	6.78 µM (inactive)	2.9 µM (inactive)	4.45 µM (inactive)	3.49 µM (inactive)	4.16 µM (inactive)	17.4 µM (inactive)	6.97 µM (inactive)	16.8 µM (inactive)	8.61 µM (inactive)	4.18 µM (inactive)	4.53 µM (inactive)
CCN(CC)CCCNc1c2c(Cl)cc(Cl)cc2nc2nc(O)nc(C)c12	18 µM (inactive)	65.9 µM (inactive)	19.9 µM (inactive)	57.4 µM (inactive)	41.6 µM (inactive)	21.5 µM (inactive)	17.8 µM (inactive)		19.5 µM (inactive)	> 100 µM (inactive)	45.3 µM (inactive)	> 100 µM (inactive)	> 10 µM (inactive)	15.7 µM (inactive)	> 10 µM (inactive)	25.3 µM (inactive)	> 100 µM (inactive)	30.7 µM (inactive)	21.6 µM (inactive)	18.5 µM (inactive)
CC(C)(CN1CCCCC1)C(=O)/C=C/c1c(Cl)cccc1Cl	1.38 µM (inactive)	1.42 µM (inactive)	1.48 µM (inactive)	1.61 µM (inactive)	0.489 µM (active)	1.83 µM (inactive)	0.927 µM (active)		2.44 µM (inactive)	1.57 µM (inactive)	1.57 µM (inactive)	0.971 µM (active)	2.18 µM (inactive)	0.867 µM (active)	3.89 µM (inactive)	1.49 µM (inactive)	0.701 µM (active)	1.91 µM (inactive)	0.124 µM (active)	0.789 µM (active)
NC(C(=O)O)c1ccc(C(=O)O)cc1 (stereo unspecified)	> 100 µM (inactive)	> 100 µM (inactive)	> 100 µM (inactive)	> 100 µM (inactive)	> 100 µM (inactive)	> 100 µM (inactive)	> 100 µM (inactive)	> 100 µM (inactive)	> 100 µM (inactive)		> 100 µM (inactive)	> 100 µM (inactive)	> 100 µM (inactive)	> 100 µM (inactive)	> 100 µM (inactive)	> 100 µM (inactive)	> 100 µM (inactive)		> 100 µM (inactive)	

— ChEMBL document CHEMBL1201862, “PubChem BioAssay data set” (2004)
